Experimental data from PubChem BioAssay (NCI).
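Values below derive from 48-hour exposures of cells grown in 96-well plates, with endpoints linearly interpolated between the two concentrations bracketing the appropriate inhibition level. Abbreviation: GI50, concentration required for 50% inhibition of growth. TGI is the concentration that stops growth completely.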

Experiments:
Assay in all cases: NCI-60 cell line screen, 48 h
DU-145 prostate = system: DU-145 prostate
SK-OV-3 ovarian = system: SK-OV-3 ovarian
HCT-15 colon = system: HCT-15 colon
SK-MEL-2 melanoma = system: SK-MEL-2 melanoma
OVCAR-5 ovarian = system: OVCAR-5 ovarian
OVCAR-8 ovarian = system: OVCAR-8 ovarian
SN12C renal = system: SN12C renal
RXF 393 renal = system: RXF 393 renal
UACC-257 melanoma = system: UACC-257 melanoma
TK-10 renal = system: TK-10 renal

Row | SMILES | GI50 (DU-145 prostate) [µM] | TGI (DU-145 prostate) [µM] | GI50 (SK-OV-3 ovarian) [µM] | TGI (SK-OV-3 ovarian) [µM] | GI50 (HCT-15 colon) [µM] | TGI (HCT-15 colon) [µM] | GI50 (SK-MEL-2 melanoma) [µM] | TGI (SK-MEL-2 melanoma) [µM] | GI50 (OVCAR-5 ovarian) [µM] | TGI (OVCAR-5 ovarian) [µM] | GI50 (OVCAR-8 ovarian) [µM] | TGI (OVCAR-8 ovarian) [µM] | GI50 (SN12C renal) [µM] | TGI (SN12C renal) [µM] | GI50 (RXF 393 renal) [µM] | TGI (RXF 393 renal) [µM] | GI50 (UACC-257 melanoma) [µM] | TGI (UACC-257 melanoma) [µM] | TGI (TK-10 renal) [µM] | GI50 (TK-10 renal) [µM]
1 | Cc1sc2c(c1C)C(c1ccc(Cl)cc1)=N[C@@H](CC(=O)NCCCN1CCN(C)CC1)c1nnc(C)n1-2 | > 100 | > 100 | 0.309 | > 42.3 | 16.8 | > 100 | > 44.6 | > 100 | 1.99 | > 100 | 4.96 | > 100 | 7.36 | > 100 | 2.08 | > 100 | 3.26 | > 100 |  | 
2 | OCC1CCCC1O (stereo not drawn) |  | > 100 |  |  |  | > 100 |  | > 100 |  | > 100 |  | > 100 |  | > 100 |  | > 100 |  | > 100 | > 100 | 
3 | CCNCCNc1cc(-c2ccc(C(F)(F)F)cc2)c(C#N)c2nc3cc(Cl)c(Cl)cc3n12 | 1.7 | 3.13 | 2.01 | 3.45 | 0.289 | 0.935 |  |  | 2.03 | 3.68 | 1.74 | 3.41 | 1.77 | 3.46 | 1.3 | 2.62 | 1.9 | 3.39 | 3.87 | 2.38
4 | CN(/N=C\c1ccnc2ccccc12)c1ccccc1 |  |  |  | 66 |  | 39.5 |  | 38.5 |  | 45.6 |  | > 100 |  | > 100 |  | 77.3 |  | 42.6 | 98.7 | 
5 | O=C(O)CN(c1ccc(F)cc1)S(=O)(=O)c1ccccc1 |  |  |  | > 100 |  | > 100 |  | > 100 |  | > 100 |  | > 100 |  | > 100 |  | > 100 |  | > 100 | > 100 | 
6 | O=[N+]([O-])C=C1c2ccccc2-c2ccccc21 |  |  |  |  |  | 38.7 |  | 39.9 |  | 31.4 |  | 34.2 |  | 35.7 |  | 31.3 |  | 33.7 | 32.3 | 
7 | Cc1c2c(nn1-c1ccc(S(=O)(=O)NC(=S)NC(=O)c3ccccc3)cc1)-c1ccccc1CC2 | 23.9 | > 100 | > 100 | > 100 | 39.5 | > 100 | > 100 | > 100 | > 100 | > 100 | 72.4 | > 100 | 34.4 | > 100 |  |  | 10.7 | 47.4 | 78.5 | 28.9
8 | COc1cc(/C=C/C(=O)c2c(-c3ccc(F)cc3)nc3sc(C)nn23)cc(OC)c1OC | 2.91 | 10.4 | 2.99 | 8.91 | 2 | 5.46 |  |  | 3.46 | 9.92 | 2.48 | 12.9 | 2.48 | 8.65 | 2.11 | 6.66 | 4.18 | 16.5 | 8.14 | 2.92
9 | NCCSC(c1ccccc1)(c1ccccc1)c1ccccc1 | 2.32 | 6.07 | 0.512 | 12.5 | 0.409 | 1.75 | 1.18 | 2.72 | 1.92 | 6.95 | 0.989 | 7 | 0.739 | 11.7 |  |  | 1.13 | 2.68 |  | 
10 | COc1cc(O)c2c(c1)C(=O)C1=C(C2=O)C(O)C[C@@](C)(O)C1 (stereo partly drawn) |  |  |  | 17.1 |  | 3.61 |  | 5.05 |  | 22.2 |  | 6.15 |  | 2.65 |  | 3.05 |  | 1.24 | 6.14 | 
11 | COc1ccc2nc3cccc([N+](=O)[O-])c3c(NC(C)CN(C)C)c2c1 (stereo not drawn) | 1.89 | 14.2 | 2.62 | 9.14 | 3.71 |  |  |  | 1.73 | 5.21 | 1.54 | 7.64 | 2.67 | 9.6 |  |  | 2.67 | 7.02 | 9.59 | 2.2
12 | C=C1CC2(CCS(=O)(=O)c3ccccc32)OC1=O (stereo not drawn) |  |  |  | 44.1 |  | 27.6 |  | 23.6 |  | 27.3 |  |  |  |  |  |  |  | 32.1 | 26.7 | 
13 | O=C1c2cc(F)ccc2-c2c1c1ccc([N+](=O)[O-])cc1c(=O)n2CCCBr | 3.38 | > 100 | 20.2 | > 100 | 56.8 | > 100 | > 100 | > 100 | 65.5 | > 100 | 12.2 | > 100 | 27.4 | > 100 |  |  | 13.1 | 82.6 | > 100 | 64.8
14 | Cc1ccc(Sc2ccccc2N)cc1 |  |  |  | > 100 |  | > 100 |  | > 100 |  | > 100 |  | > 100 |  | > 100 |  | 47.2 |  | > 100 | > 100 | 
15 | O=C(CSSCC(=O)Nc1ccc(Br)cc1)Nc1ccc(Br)cc1 |  |  |  | 40 |  | 46.6 |  |  |  | 41.7 |  | 31.6 |  | 30.2 |  | 33.2 |  | 37.6 | 30.5 | 
16 | CCOC(=O)CN(c1ccccc1)c1nc(=[N+](C)C)ss1 |  |  |  | > 100 |  | 56.5 |  | 55.9 |  |  |  | 70.1 |  | 36.7 |  | > 100 |  | 96 | > 100 | 
17 | N#CCc1nnc(N)o1 |  |  |  | > 100 |  | > 100 |  | > 100 |  |  |  |  |  | > 100 |  |  |  | > 100 | > 100 | 
18 | COc1cccc(C2SCc3nc4ccccc4n32)c1 (stereo not drawn) |  |  |  | > 100 |  | > 100 |  | > 100 |  | > 100 |  | > 100 |  | > 100 |  | > 100 |  | > 100 | 55.1 | 
19 | COC(=O)C1[C@H](c2ccc3c(c2)OCO3)OC(=O)[C@]1(C(=O)OC)C(=O)c1ccc(OC)c(OC)c1 (stereo partly drawn) |  |  |  | > 100 |  | > 100 |  | 79.9 |  | > 100 |  | > 100 |  | > 100 |  |  |  | > 100 | > 100 | 
20 | c1ccc2c(CNCCCCCCCCNCc3cccc4ccccc34)cccc2c1 |  |  |  | 30.9 |  | 3.38 |  | 3.03 |  | 4.14 |  | 3.5 |  | 19.2 |  | 3.13 |  | 3.29 | 5.53 | 
